Reference: patent US4165371A, “1,2,3,4,5,6-Hexahydro-1,6-methano-3-benzazocines” (priority 1976, dated 1979)

What was measured:
[1] = type: in vivo; details: mouse hot plate, intravenous; for ED50: range in parentheses
Description: (c) The presence of certain N-substituents would confer antagonist activity on members of this new ring system, Tests for analgesic activity were conducted using intravenous administration in the reliable Eddy mouse hot plate assay described in J. Pharmacol. Exp. Ther. […] (1953). The results are set forth in Table 1, together with the activities of morphine and codeine reported as evaluation standards.

[2] = test system: Non-withdrawn, morphine dependent monkeys; test: Attempted precipitation of abstinence in non-withdrawn, morphine-dependent monkeys (NW); type: in vivo, monkey; details: for Effects, precipitation of abstinence signs (NW): 2 monkeys
[3] = test system: monkeys, physically dependent on morphine; test: Physical dependence liability: Single Dose Suppression (SDS) in withdrawn morphine-dependent monkeys; type: in vivo, monkey; details: 2 monkeys
Description: (§1) Physical Dependence Liability testing was conducted on Compounds A, B, C and F of Table 1. For determining Single Dose Suppression (SDS) data monkeys, physically dependent on 3.0 mg/kg of morphine sulfte q6H, were withdrawn until abstinence signs of intermediate severity were present (12-14 hours). The coded drug was injected at this time by persons other than the observer. The monkeys were graded just prior to injection and at intervals of 1/2, 1, 2, 3, 4, 5 and 6 hours after injection. Grades were based on withdrawal intensity or opiate-like depression and side effects, if present. The results are shown in Tables 2 through 5 together with evaluations thereof by Dr. Henry H. Swain at the University of Michigan. Dosages are in mg/kg.

[4] = test system: Normal monkeys (not dependent on morphine); test: Normal monkeys (not dependent on morphine): attempt to elicit the narcotic syndrome; type: in vivo, monkey
[5] = test system: morphine dependent monkeys; test: Physical dependence liability testing, overall evaluation; type: in vivo, monkey; details: for Estimated Physical Dependence Capacity: at doses tested
Description: as §1

Structure (SMILES)	duration [1]	onset [1]	peak [1]	ED50 [1]	Effects, Single Dose Suppression ([3]; 2.0 mg/kg)	Estimated Physical Dependence Capacity [5]	further results
c1ccc(CCN2CCC3CC(C2)c2ccccc23)cc1 (centres unmarked)	123 min	4.7 min	25.6 min	8.8 (6.2-12.5) mg/kg			
CCCN1CCC2CC(C1)c1ccccc12 (centres unmarked)	120 min	3.6 min	32.1 min	16.2 (11.7-22.4) mg/kg			
c1ccc2c(c1)C1CCNCC2C1 (centres unmarked) [A]	97.5 min	3.3 min	18.0 min	4.9 (3.6-6.5) mg/kg	No apparent effect	Not morphine-like	morphine antagonism [2]: not morphine antagonists; precipitation of the morphine abstinence syndrome [2]: no such result was observed; narcotic signs [4]: no obvious narcotic signs were observed; Narcotic signs in normals ([4]; 8.0 mg/kg, 2 monkeys): No obvious narcotic signs
CN1CCC2CC(C1)c1ccccc12 (centres unmarked) [B]	104 min	3.2 min	20.3 min	4.2 (2.6-6.7) mg/kg	No apparent effect	Little or none at doses tested	morphine antagonism [2]: not morphine antagonists; precipitation of the morphine abstinence syndrome [2]: no such result was observed; Effects, precipitation of abstinence signs (NW) ([2]; 4.0 mg/kg): No obvious effect; Effects, precipitation of abstinence signs (NW) ([2]; 8.0 mg/kg): No obvious effect; Effects, Single Dose Suppression ([3]; 4.0 mg/kg): No obvious effect; narcotic signs [4]: no obvious narcotic signs were observed
c1ccc2c(c1)C1CCN(CC3CC3)CC2C1 (centres unmarked) [C]						None	Effects, Single Dose Suppression ([3]; 5.0 mg/kg): No obvious effect; Effects, Single Dose Suppression ([3]; 10.0 mg/kg): No obvious effect; Remarks: direct effects / convulsions ([5]; doses tested): The drug causes convulsions; Dose estimated to be equivalent to 3.0 mg/kg of morphine sulfate ([5]; evaluation in words): Not morphine-like
C=CCN1CCC2CC(C1)c1ccccc12 (centres unmarked) [F]	119 min	3.2 min	16.3 min	19.4 (13.1-28.7) mg/kg	No apparent effect	None	Effects, Single Dose Suppression ([3]; 1.0 mg/kg): No apparent effect; Effects, Single Dose Suppression ([3]; 4.0 mg/kg): No apparent effect; Effects, Single Dose Suppression ([3]; 8.0 mg/kg): No apparent effect; Effects, Single Dose Suppression ([3]; 16.0 mg/kg): No obvious effect
COc1ccc2c3c1O[C@H]1[C@@H](O)C=C[C@H]4[C@@H](C2)N(C)CC[C@@]341 [codeine, reference compound]				7.5 (6.8-8.3) mg/kg			
CN1CC[C@]23c4c5ccc(O)c4O[C@H]2[C@@H](O)C=C[C@H]3[C@H]1C5 [morphine, reference compound]				1.2 (0.9-1.3) mg/kg			
